The target in one series is T1, Neutrophil elastase (Homo sapiens, UniProt P08246).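 Note: inhibition of neutrophil elastase enzyme activity, measured with a p-nitroanilide-linked peptide substrate; in other assays of this panel Not Active means under 50% inhibition at 10 µM.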
T1 sequence (P08246 whole entry): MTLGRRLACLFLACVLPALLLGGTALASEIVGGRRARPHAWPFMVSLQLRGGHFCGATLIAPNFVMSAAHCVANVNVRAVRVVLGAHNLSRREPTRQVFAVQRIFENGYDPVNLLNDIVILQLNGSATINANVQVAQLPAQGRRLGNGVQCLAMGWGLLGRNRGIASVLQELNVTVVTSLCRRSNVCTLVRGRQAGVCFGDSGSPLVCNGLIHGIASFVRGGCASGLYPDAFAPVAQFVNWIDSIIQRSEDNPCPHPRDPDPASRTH
The series is classed as tissue-based.

Series [1] deals with Voltage-gated inwardly rectifying potassium channel KCNH2 (Homo sapiens, UniProt Q12809). The settings on record: hek293.
Series [2] can be described thus: DRUGMATRIX: GABAA, Muscimol, Central radioligand binding (ligand: [3H] Muscimol). The class given is cell membranes, Rattus norvegicus, Wistar, Brain, Membrane. The settings on record: Not Active = under 50% inhibition at 10 µM.
In the next series the target is T2, B2 bradykinin receptor (Homo sapiens, UniProt P30411). Note: in other assays of this panel Not Active means under 50% inhibition at 10 µM.
T2 sequence (P30411 whole entry): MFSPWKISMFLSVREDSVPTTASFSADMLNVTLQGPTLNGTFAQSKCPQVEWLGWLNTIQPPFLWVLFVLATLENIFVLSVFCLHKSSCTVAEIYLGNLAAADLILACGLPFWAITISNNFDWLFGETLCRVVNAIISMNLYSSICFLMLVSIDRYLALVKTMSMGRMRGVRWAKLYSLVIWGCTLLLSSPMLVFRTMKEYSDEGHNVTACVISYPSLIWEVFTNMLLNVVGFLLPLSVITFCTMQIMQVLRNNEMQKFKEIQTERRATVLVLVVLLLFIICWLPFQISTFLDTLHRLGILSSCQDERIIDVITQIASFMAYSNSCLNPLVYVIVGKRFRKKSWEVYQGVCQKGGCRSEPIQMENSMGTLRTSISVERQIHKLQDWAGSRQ
The class given is cell membranes, Membrane. To be noted: chem-1.

A further series addresses Histamine H2 receptor (Homo sapiens, UniProt P25021). The class given is cell membranes, CHO-K1, Membrane.
The next series addresses T3, Substance-K receptor (Homo sapiens, UniProt P21452).
T3 sequence (P21452 whole entry): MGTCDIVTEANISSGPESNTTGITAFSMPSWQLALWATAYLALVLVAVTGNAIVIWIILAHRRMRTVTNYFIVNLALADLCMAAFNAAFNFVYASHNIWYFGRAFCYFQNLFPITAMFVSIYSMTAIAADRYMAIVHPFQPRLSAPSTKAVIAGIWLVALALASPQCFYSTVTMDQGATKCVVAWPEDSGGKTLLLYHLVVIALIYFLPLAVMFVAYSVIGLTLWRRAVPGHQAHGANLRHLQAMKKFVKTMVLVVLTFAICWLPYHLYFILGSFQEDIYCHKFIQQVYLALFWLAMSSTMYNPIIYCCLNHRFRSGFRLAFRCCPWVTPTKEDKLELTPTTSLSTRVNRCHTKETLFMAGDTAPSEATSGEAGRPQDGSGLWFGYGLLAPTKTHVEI
The class given is cell membranes, CHO, Membrane. To be noted: cho.

Another series deals with T4, D(4) dopamine receptor (Homo sapiens, UniProt P21917).
T4 sequence (P21917 whole entry): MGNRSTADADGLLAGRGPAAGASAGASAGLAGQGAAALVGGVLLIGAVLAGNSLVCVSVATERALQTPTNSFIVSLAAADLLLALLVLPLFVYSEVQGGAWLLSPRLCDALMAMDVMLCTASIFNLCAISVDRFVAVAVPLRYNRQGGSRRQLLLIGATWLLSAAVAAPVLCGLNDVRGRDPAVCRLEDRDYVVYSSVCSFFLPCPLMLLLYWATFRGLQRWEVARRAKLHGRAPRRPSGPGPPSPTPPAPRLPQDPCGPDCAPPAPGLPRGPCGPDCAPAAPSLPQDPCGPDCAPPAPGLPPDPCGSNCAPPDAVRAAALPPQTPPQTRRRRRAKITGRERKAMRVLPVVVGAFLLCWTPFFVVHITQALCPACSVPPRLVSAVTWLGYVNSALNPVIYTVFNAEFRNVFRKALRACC
The series is described as follows: DRUGMATRIX: Dopamine D4.2 radioligand binding (ligand: [3H] Spiperone). To be noted: cho-k1; Not Active = under 50% inhibition at 10 µM. The class given is cell membranes, CHO-K1, Membrane.

For orientation: IC50 means the concentration at which inhibition is half-maximal. In general, Ki refers to a measure of affinity in units of concentration, obtained from inhibition or displacement.

Sequence of Histamine H2 receptor (P25021 whole entry): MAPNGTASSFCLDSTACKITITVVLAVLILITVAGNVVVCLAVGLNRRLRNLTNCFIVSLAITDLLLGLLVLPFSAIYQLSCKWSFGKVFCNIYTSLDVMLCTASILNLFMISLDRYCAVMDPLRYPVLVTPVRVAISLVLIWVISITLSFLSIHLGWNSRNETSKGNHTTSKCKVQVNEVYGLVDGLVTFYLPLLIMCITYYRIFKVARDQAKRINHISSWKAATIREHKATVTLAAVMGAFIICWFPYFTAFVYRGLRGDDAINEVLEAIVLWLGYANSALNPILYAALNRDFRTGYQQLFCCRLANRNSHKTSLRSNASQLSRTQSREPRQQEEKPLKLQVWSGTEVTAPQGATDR
Sequence of Voltage-gated inwardly rectifying potassium channel KCNH2 (Q12809 whole entry): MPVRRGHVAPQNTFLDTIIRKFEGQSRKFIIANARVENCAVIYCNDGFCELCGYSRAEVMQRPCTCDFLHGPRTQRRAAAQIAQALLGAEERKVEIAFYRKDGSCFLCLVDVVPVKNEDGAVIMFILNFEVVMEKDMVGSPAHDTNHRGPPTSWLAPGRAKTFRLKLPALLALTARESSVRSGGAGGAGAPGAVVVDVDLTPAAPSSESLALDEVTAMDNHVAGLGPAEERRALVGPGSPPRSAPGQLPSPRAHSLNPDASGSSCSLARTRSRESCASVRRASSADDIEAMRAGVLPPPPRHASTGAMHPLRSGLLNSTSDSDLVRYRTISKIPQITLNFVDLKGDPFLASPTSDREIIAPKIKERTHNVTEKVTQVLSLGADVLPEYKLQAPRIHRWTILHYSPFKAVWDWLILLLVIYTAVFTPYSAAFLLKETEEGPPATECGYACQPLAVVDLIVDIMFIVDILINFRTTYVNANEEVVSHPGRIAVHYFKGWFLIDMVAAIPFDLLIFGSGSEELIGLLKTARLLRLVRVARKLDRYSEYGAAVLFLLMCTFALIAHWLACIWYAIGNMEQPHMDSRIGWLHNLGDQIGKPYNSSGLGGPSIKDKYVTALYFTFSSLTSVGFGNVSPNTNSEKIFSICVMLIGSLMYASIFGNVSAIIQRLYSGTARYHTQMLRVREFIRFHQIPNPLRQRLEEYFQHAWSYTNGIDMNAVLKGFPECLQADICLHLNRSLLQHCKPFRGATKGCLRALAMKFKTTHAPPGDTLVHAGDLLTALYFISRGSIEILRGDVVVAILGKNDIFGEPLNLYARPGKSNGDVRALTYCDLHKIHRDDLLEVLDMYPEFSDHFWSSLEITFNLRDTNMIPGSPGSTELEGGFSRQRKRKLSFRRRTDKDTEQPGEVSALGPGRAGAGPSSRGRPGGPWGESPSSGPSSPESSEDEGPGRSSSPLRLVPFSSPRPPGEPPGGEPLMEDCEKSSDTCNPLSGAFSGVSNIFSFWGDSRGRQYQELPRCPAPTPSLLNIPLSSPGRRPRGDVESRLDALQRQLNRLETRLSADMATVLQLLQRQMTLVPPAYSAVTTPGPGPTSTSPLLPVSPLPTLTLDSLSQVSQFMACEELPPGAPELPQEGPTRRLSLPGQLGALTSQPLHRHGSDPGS

For `Cc1ccc2cc3c(ccc4ccccc43)c3c2c1CC3` [3-METHYLCHOLANTHRENE], the IC50 result (on Neutrophil elastase; in series [1]; in series [2]; against B2 bradykinin receptor; against Histamine H2 receptor (cho-k1); at Substance-K receptor) was “Not Active” in each case. Besides, the concentration for half-maximal inhibition (IC50) result at D(4) dopamine receptor is on record as “Not Active”. Moreover, the Ki entry in series [1] and in series [2] was “Not Active” each time.
`O=C(O)CCCc1ccc(N(CCCl)CCCl)cc1` [CHLORAMBUCIL]: the IC50 result (against Neutrophil elastase; in series [1]; in series [2]; against B2 bradykinin receptor; against Histamine H2 receptor (cho-k1); against Substance-K receptor) was “Not Active” each time. Also, the IC50 entry at D(4) dopamine receptor is reported as “Not Active”. In addition, the Ki result in series [1] and in series [2] was “Not Active” in each case.
For `C=C(C)C1(O)OC(=O)C=C1OC` (stereo not given) [PENICILLIC ACID], the IC50 entry (at Neutrophil elastase; in series [1]; in series [2]; on B2 bradykinin receptor; at Histamine H2 receptor (cho-k1); on Substance-K receptor) was “Not Active” in each case. Further, the IC50 result at D(4) dopamine receptor is reported as “Not Active”. Further, the Ki entry in series [1] and in series [2] was “Not Active” in each case.
On to `CCCC1O[C@@H]2C[C@H]3[C@@H]4CCC5=CC(=O)C=C[C@]5(C)[C@H]4[C@@H](O)C[C@]3(C)[C@]2(C(=O)CO)O1` (stereo not given in full) [BUDESONIDE], for which the half-inhibitory concentration (IC50) result (against Neutrophil elastase; in series [1]; in series [2]; against B2 bradykinin receptor; at Histamine H2 receptor (cho-k1); against Substance-K receptor) was “Not Active” throughout. The IC50 result at D(4) dopamine receptor was “Not Active”. The Ki entry in series [1] and in series [2] was “Not Active” in each case.
As to `COCCc1ccc(OCC(O)CNC(C)C)cc1` (stereo not given) [METOPROLOL], the IC50 entry (at Neutrophil elastase; in series [1]; in series [2]; at B2 bradykinin receptor; at Histamine H2 receptor (cho-k1); on Substance-K receptor) was “Not Active” throughout. Moreover, the IC50 entry at D(4) dopamine receptor was “Not Active”. The Ki result in series [1] and in series [2] was “Not Active” each time.
Take `CC1CC(OC(=O)C(O)c2ccccc2)CC(C)(C)C1` (stereo not given) [CYCLANDELATE]: the IC50 entry (against Neutrophil elastase; in series [1]; in series [2]; against B2 bradykinin receptor; at Histamine H2 receptor (cho-k1); against Substance-K receptor) was “Not Active” in each case. Moreover, the IC50 result at D(4) dopamine receptor is listed as “Not Active”. Besides, the inhibition constant Ki result in series [1] and in series [2] was “Not Active” each time.
As to `C1CCC(C(CC2CCCCN2)C2CCCCC2)CC1` (stereo not given) [PERHEXILINE], the IC50 entry (at Neutrophil elastase; in series [1]; in series [2]; at B2 bradykinin receptor; against Histamine H2 receptor (cho-k1); at Substance-K receptor) was “Not Active” each time. Further, the IC50 result on D(4) dopamine receptor was “Not Active”. Besides, the Ki result in series [1] and in series [2] was “Not Active” in each case.
For the molecule `CC(C)[C@H]1C(=O)N2CCC[C@H]2[C@]2(O)O[C@](NC(=O)[C@@H]3C=C4c5cccc6[nH]cc(c56)C[C@H]4N(C)C3)(C(C)C)C(=O)N12` [ERGOCORNINE], the IC50 result (against Neutrophil elastase; in series [1]; in series [2]; at B2 bradykinin receptor; at Histamine H2 receptor (cho-k1); on Substance-K receptor) was “Not Active” throughout. Further, the IC50 result at D(4) dopamine receptor is reported as “Not Active”. In addition, the Ki result in series [1] and in series [2] was “Not Active” each time.
Turning to `CC(C)[C@@]1(NC(=O)[C@@H]2C[C@@H]3c4cccc5[nH]cc(c45)C[C@H]3N(C)C2)O[C@@]2(O)[C@@H]3CCCN3C(=O)[C@H](Cc3ccccc3)N2C1=O.CS(=O)(=O)O` [DIHYDROERGOCRISTINE MESYLATE], the IC50 entry (at Neutrophil elastase; in series [1]; in series [2]; against B2 bradykinin receptor; against Histamine H2 receptor (cho-k1); on Substance-K receptor) was “Not Active” throughout. For the same molecule, the IC50 result on D(4) dopamine receptor is recorded as “Not Active”. The Ki result in series [1] and in series [2] was “Not Active” each time.
For the molecule `C[C@]12CCC(=O)C=C1CC[C@@H]1[C@@H]2CC[C@@]2(C)[C@H]1CC[C@]2(C)O` [METHYLTESTOSTERONE], the IC50 result (against Neutrophil elastase; in series [1]; in series [2]; on B2 bradykinin receptor; against Histamine H2 receptor (cho-k1); against Substance-K receptor) was “Not Active” each time. Moreover, the IC50 result at D(4) dopamine receptor is “Not Active”. Further, the Ki entry in series [1] and in series [2] was “Not Active” in each case.
For the molecule `CC(C)CN(C[C@@H](O)[C@H](Cc1ccccc1)NC(=O)O[C@H]1CCOC1)S(=O)(=O)c1ccc(N)cc1`, the IC50 result (against Neutrophil elastase; in series [1]; in series [2]; against B2 bradykinin receptor; against Histamine H2 receptor (cho-k1); against Substance-K receptor) was “Not Active” each time. In addition, the IC50 result on D(4) dopamine receptor is reported as “Not Active”. For the same molecule, the inhibition constant Ki result in series [1] and in series [2] was “Not Active” each time.
With `CN(C)CCCN1c2ccccc2Sc2ccccc21` [PROMAZINE], the IC50 result was “Not Active” against Neutrophil elastase; “Not Active” in series [1]; “Not Active” in series [2]; “Not Active” at B2 bradykinin receptor; 2.86 µM at Histamine H2 receptor (read-out: IC50); “Not Active” against Substance-K receptor. Further, at D(4) dopamine receptor, the IC50 result is “Not Active”. The inhibition constant (Ki) result in series [1] was “Not Active”; in series [2] it was “Not Active”; on Histamine H2 receptor (read-out: Ki), 2.81 µM.
For the molecule `Cc1c(C)c2c(c(C)c1O)CC[C@@](C)(CCC[C@H](C)CCC[C@H](C)CCCC(C)C)O2` [ALPHA-TOCOPHEROL], the IC50 entry (at Neutrophil elastase; in series [1]; in series [2]; against B2 bradykinin receptor; against Histamine H2 receptor (cho-k1); against Substance-K receptor) was “Not Active” throughout. Moreover, at D(4) dopamine receptor, the IC50 result is “Not Active”. The Ki entry in series [1] and in series [2] was “Not Active” throughout.
For `Cc1ccc(/N=C/N(C)/C=N/c2ccc(C)cc2C)c(C)c1` [AMITRAZ], the IC50 entry (on Neutrophil elastase; in series [1]; in series [2]; at B2 bradykinin receptor; on Histamine H2 receptor (cho-k1); against Substance-K receptor) was “Not Active” throughout. The IC50 entry on D(4) dopamine receptor is listed as “Not Active”. In addition, the Ki entry in series [1] and in series [2] was “Not Active” in each case.
In the case of `CN(C)c1nc(N(C)C)nc(N(C)C)n1` [ALTRETAMINE], the IC50 entry (on Neutrophil elastase; in series [1]; in series [2]; on B2 bradykinin receptor; against Histamine H2 receptor (cho-k1); at Substance-K receptor) was “Not Active” each time. The IC50 result on D(4) dopamine receptor is “Not Active”. In addition, the Ki result in series [1] and in series [2] was “Not Active” each time.
For the molecule CADMIUM ACETATE, the IC50 entry (on Neutrophil elastase; in series [1]; in series [2]; against B2 bradykinin receptor; against Histamine H2 receptor (cho-k1); against Substance-K receptor) was “Not Active” each time. In addition, the IC50 entry on D(4) dopamine receptor is recorded as “Not Active”. Also, the Ki result (on Neutrophil elastase; in series [1]; in series [2]; at B2 bradykinin receptor; on Histamine H2 receptor (cho-k1); at Substance-K receptor) was “Not Active” each time. For the same molecule, at D(4) dopamine receptor, the Ki entry is listed as “Not Active”.

Source of the values: ChEMBL document CHEMBL1909046, “DrugMatrix in vitro pharmacology data”.
